Laboratory results published in ChEMBL document CHEMBL4879553, “Data for DCP probe BAY1125976” (2021).
Blank lines part the entries; values can stand above or below the compound they belong to. Activity calls are given as the source filed them. The rule behind the calls is not given here.

Experiments:
[1] = target: RAC-gamma serine/threonine-protein kinase (Homo sapiens, UniProt Q9Y243); assay: NanoBRET (AKT3)
[2] = NanoBRET (AKT1); settings: Homo sapiens
[3] = target: D(1A) dopamine receptor (Homo sapiens) (UniProt P21728); settings: Compound concentration 10.0 uM
[4] = target: Muscarinic acetylcholine receptor M5 (Homo sapiens) (UniProt P08912); settings: Compound concentration 10.0 uM
[5] = target: Histamine H1 receptor (Homo sapiens) (UniProt P35367); settings: Compound concentration 10.0 uM
Rattus norvegicus = species: Rattus norvegicus; settings: Compound concentration 10.0 uM
[6] = target: Beta-3 adrenergic receptor (Homo sapiens) (UniProt P13945); settings: Compound concentration 10.0 uM
[7] = Mechanistic cell assay: inhibition of PRAS40 phosphorylation at T246; settings: Homo sapiens
[8] = target: Histamine H2 receptor (Homo sapiens) (UniProt P25021); settings: Compound concentration 10.0 uM
[9] = target: Alpha-1B adrenergic receptor (Homo sapiens) (UniProt P35368); settings: Compound concentration 10.0 uM
[10] = target: Muscarinic acetylcholine receptor M4 (Homo sapiens) (UniProt P08173); settings: Compound concentration 10.0 uM
[11] = target: 5-hydroxytryptamine receptor 6 (Homo sapiens) (UniProt P50406); settings: Compound concentration 10.0 uM
[12] = target: Alpha-1A adrenergic receptor (Homo sapiens) (UniProt P35348); settings: Compound concentration 10.0 uM
[13] = target: Muscarinic acetylcholine receptor M1 (Homo sapiens, UniProt P11229); assay: GPCRScan assay: inhibition of M1; set-up: radioligand conc. used [nm] 0.3 – 1.2, parental cells stable CHO
[14] = Mechanistic cell assay: Reduction of the basal levels of AKT phosphorylation in KPL-4 cells at S473; type: cell-based; settings: Homo sapiens, KPL4
[15] = target: Beta-2 adrenergic receptor (Homo sapiens) (UniProt P07550); settings: Compound concentration 10.0 uM
[16] = target: Sodium-dependent dopamine transporter (Homo sapiens) (UniProt Q01959); settings: Compound concentration 10.0 uM
[17] = target: Muscarinic acetylcholine receptor M1 (Homo sapiens) (UniProt P11229); settings: Compound concentration 10.0 uM
[18] = target: Alpha-2C adrenergic receptor (Homo sapiens) (UniProt P18825); settings: Compound concentration 10.0 uM
[19] = target: D(2) dopamine receptor (Homo sapiens) (UniProt P14416); settings: Compound concentration 10.0 uM
[20] = Mechanistic cell assay: Inhibition of phosphorylation (T308); settings: Homo sapiens
[21] = target: Sodium-dependent serotonin transporter (Homo sapiens) (UniProt P31645); settings: Compound concentration 10.0 uM
[22] = target: Sigma intracellular receptor 2 (Homo sapiens) (UniProt Q5BJF2); settings: Compound concentration 10.0 uM
[23] = Mechanistic cell assay: Reduction of the basal levels of AKT phosphorylation in KPL-4 cells at T308; type: cell-based; settings: Homo sapiens, KPL4
[24] = target: Alpha-2A adrenergic receptor (Homo sapiens) (UniProt P08913); settings: Compound concentration 10.0 uM
[25] = target: D(1B) dopamine receptor (Homo sapiens) (UniProt P21918); settings: Compound concentration 10.0 uM
[26] = target: 5-hydroxytryptamine receptor 2B (Homo sapiens) (UniProt P41595); settings: Compound concentration 10.0 uM
[27] = Mechanistic cell assay: Inhibition of phosphorylation (AKT1-S473); settings: Homo sapiens
[28] = target: 5-hydroxytryptamine receptor 1D (Homo sapiens) (UniProt P28221); settings: Compound concentration 10.0 uM
[29] = target: 5-hydroxytryptamine receptor 1B (Homo sapiens) (UniProt P28222); settings: Compound concentration 10.0 uM
[30] = target: Mu-type opioid receptor (Homo sapiens) (UniProt P35372); settings: Compound concentration 10.0 uM
[31] = target: 5-hydroxytryptamine receptor 5A (Homo sapiens) (UniProt P47898); settings: Compound concentration 10.0 uM
[32] = target: 5-hydroxytryptamine receptor 1A (Homo sapiens) (UniProt P08908); settings: Compound concentration 10.0 uM
[33] = Mechanistic cell assay: Inhibition of activation by phosphorylation (AKT1-S473); settings: Homo sapiens
[34] = Mechanistic cell assay: Inhibition of activation by phosphorylation (4EBPI-T70); settings: Homo sapiens
[35] = target: 5-hydroxytryptamine receptor 7 (Homo sapiens) (UniProt P34969); settings: Compound concentration 10.0 uM
[36] = target: D(4) dopamine receptor (Homo sapiens) (UniProt P21917); settings: Compound concentration 10.0 uM
[37] = target: Sigma non-opioid intracellular receptor 1 (Homo sapiens) (UniProt Q99720); settings: Compound concentration 10.0 uM
[38] = target: Alpha-1D adrenergic receptor (Homo sapiens) (UniProt P25100); settings: Compound concentration 10.0 uM
[39] = target: Histamine H3 receptor (Homo sapiens) (UniProt Q9Y5N1); settings: Compound concentration 10.0 uM
[40] = target: Sodium-dependent noradrenaline transporter (Homo sapiens) (UniProt P23975); settings: Compound concentration 10.0 uM
[41] = target: Muscarinic acetylcholine receptor M2 (Homo sapiens) (UniProt P08172); settings: Compound concentration 10.0 uM
[42] = target: Muscarinic acetylcholine receptor M3 (Homo sapiens) (UniProt P20309); settings: Compound concentration 10.0 uM
[43] = Mechanistic cell assay: Blocking of the activation of the downstream signaling molecule 4EBP1 by phosphorylation at mTOR substrate T70; set-up: species or system Homo sapiens
[44] = target: GABA-A receptor; anion channel (Rattus norvegicus) (UniProt O09028+P15431+P18506+P18508+P19969+P20236+P23574+P23576+P28471+P28473+P30191+P62813+P63079+P63138+Q91ZM7+Q9ES14); settings: Compound concentration 10.0 uM
[45] = target: Delta-type opioid receptor (Homo sapiens) (UniProt P41143); settings: Compound concentration 10.0 uM
[46] = Mechanistic cell assay: Inhibition of phosphorylation (4EBPI-T70); settings: Homo sapiens
[47] = target: Alpha-2B adrenergic receptor (Homo sapiens) (UniProt P18089); settings: Compound concentration 10.0 uM
[48] = target: 5-hydroxytryptamine receptor 2A (Homo sapiens) (UniProt P28223); settings: Compound concentration 10.0 uM
[49] = NanoBRET (AKT2); settings: Homo sapiens
[50] = target: 5-hydroxytryptamine receptor 3A (Homo sapiens) (UniProt P46098); settings: Compound concentration 10.0 uM
[51] = target: Kappa-type opioid receptor (Homo sapiens) (UniProt P41145); settings: Compound concentration 10.0 uM
[52] = target: 5-hydroxytryptamine receptor 2C (Homo sapiens) (UniProt P28335); settings: Compound concentration 10.0 uM
[53] = target: Beta-1 adrenergic receptor (Homo sapiens) (UniProt P08588); settings: Compound concentration 10.0 uM
[54] = target: D(3) dopamine receptor (Homo sapiens) (UniProt P35462); settings: Compound concentration 10.0 uM

Chain of Muscarinic acetylcholine receptor M1 (P11229 whole entry): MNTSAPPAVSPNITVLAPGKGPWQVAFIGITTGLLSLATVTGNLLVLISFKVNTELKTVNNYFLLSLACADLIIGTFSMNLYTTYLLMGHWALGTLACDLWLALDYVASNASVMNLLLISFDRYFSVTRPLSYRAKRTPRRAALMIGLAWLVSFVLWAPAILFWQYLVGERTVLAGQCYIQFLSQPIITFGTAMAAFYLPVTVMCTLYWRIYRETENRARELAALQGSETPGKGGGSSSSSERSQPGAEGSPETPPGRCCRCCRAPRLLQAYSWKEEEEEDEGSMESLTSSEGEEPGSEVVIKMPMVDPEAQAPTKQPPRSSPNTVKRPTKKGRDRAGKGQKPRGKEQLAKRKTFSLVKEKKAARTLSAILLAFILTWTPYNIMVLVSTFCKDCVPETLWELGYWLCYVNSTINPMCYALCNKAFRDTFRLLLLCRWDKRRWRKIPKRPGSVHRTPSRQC
Chain of D(4) dopamine receptor (Homo sapiens) (P21917 whole entry): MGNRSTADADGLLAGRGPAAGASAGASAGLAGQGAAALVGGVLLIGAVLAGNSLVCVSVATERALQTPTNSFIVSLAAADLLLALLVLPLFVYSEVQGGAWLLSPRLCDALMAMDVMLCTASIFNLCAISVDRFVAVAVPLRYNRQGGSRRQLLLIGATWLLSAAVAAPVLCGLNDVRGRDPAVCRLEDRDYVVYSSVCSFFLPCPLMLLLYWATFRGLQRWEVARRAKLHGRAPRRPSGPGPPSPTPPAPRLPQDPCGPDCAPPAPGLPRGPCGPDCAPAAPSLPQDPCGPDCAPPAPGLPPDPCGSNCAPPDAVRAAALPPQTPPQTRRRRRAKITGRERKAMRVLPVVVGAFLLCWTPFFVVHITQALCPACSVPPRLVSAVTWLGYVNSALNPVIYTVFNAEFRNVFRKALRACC
Chain of D(1B) dopamine receptor (Homo sapiens) (P21918 whole entry): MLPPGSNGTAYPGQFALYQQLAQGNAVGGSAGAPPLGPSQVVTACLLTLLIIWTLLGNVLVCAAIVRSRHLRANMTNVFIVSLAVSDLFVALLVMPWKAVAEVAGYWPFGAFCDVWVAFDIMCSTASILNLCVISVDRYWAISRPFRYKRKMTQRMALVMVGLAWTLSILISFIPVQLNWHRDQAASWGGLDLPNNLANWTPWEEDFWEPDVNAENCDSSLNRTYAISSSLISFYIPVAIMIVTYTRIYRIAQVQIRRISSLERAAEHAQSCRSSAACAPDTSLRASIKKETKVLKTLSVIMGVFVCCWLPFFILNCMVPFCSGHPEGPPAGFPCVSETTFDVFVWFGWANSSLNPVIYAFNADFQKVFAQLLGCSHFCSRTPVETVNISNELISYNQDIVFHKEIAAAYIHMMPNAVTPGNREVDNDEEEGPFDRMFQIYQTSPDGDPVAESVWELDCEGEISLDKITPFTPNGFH
Chain of RAC-gamma serine/threonine-protein kinase (Q9Y243 whole entry): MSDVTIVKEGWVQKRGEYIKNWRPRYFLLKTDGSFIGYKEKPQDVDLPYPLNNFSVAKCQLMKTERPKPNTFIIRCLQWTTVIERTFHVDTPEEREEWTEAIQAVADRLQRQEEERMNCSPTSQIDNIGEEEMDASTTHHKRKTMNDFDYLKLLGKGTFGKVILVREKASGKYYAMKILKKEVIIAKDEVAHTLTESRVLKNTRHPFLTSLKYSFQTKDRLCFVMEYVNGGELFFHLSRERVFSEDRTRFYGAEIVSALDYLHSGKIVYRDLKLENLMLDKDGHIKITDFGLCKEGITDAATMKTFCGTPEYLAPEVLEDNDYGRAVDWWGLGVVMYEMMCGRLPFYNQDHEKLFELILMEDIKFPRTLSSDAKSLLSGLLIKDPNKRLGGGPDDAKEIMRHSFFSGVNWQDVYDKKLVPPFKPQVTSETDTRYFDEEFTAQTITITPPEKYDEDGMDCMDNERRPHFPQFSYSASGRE
Chain of Beta-1 adrenergic receptor (Homo sapiens) (P08588 whole entry, looked up): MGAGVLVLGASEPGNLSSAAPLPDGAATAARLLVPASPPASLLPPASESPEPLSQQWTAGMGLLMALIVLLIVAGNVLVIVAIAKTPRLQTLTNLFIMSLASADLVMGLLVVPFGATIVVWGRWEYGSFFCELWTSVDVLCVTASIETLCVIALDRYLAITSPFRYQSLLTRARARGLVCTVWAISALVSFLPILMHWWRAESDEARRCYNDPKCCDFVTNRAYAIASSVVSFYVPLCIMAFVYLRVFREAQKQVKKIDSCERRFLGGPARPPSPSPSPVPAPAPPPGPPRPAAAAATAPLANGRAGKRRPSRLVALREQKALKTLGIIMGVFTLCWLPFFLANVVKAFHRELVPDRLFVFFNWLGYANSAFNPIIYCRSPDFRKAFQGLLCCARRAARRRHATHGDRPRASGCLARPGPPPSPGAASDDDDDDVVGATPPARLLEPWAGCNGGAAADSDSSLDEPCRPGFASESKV
Chain of Beta-3 adrenergic receptor (Homo sapiens) (P13945 whole entry, looked up): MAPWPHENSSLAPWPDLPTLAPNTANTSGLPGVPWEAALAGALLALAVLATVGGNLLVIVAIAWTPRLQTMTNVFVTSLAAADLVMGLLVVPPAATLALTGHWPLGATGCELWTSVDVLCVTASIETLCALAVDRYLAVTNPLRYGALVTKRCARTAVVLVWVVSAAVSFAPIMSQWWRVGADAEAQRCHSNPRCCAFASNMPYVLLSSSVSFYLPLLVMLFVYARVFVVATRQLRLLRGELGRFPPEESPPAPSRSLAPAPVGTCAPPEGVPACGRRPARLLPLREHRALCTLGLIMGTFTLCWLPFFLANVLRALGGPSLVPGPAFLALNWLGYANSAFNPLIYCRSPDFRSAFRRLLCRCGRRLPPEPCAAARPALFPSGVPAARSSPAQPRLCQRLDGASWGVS
Chain of Sodium-dependent noradrenaline transporter (Homo sapiens) (P23975 whole entry): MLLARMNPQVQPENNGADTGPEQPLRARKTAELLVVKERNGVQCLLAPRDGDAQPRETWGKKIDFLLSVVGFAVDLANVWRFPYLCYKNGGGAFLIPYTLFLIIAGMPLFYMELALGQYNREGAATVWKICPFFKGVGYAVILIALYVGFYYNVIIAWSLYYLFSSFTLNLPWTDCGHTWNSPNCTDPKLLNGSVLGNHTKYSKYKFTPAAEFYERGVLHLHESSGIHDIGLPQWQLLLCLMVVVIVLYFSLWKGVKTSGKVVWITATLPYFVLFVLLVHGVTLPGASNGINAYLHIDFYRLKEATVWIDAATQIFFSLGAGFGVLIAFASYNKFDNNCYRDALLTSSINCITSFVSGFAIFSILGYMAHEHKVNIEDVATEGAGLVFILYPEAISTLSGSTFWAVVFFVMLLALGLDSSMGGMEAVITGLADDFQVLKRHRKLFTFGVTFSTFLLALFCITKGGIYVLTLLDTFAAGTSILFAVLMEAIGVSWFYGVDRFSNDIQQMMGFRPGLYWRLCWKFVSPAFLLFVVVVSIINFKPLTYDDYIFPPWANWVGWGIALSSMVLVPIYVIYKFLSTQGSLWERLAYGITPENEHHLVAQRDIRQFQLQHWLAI
Chain of Sigma non-opioid intracellular receptor 1 (Homo sapiens) (Q99720 whole entry): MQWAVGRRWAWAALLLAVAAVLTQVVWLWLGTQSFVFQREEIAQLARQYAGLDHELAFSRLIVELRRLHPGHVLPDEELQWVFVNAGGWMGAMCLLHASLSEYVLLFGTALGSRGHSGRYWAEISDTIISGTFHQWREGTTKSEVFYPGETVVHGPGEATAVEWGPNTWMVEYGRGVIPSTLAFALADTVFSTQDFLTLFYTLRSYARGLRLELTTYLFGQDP
Chain of Sigma intracellular receptor 2 (Homo sapiens) (Q5BJF2 whole entry): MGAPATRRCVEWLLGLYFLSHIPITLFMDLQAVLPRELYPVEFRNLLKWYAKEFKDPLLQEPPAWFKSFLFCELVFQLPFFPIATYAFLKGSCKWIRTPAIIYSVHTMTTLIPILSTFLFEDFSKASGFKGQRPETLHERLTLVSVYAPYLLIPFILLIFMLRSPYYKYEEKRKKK
Chain of Muscarinic acetylcholine receptor M5 (Homo sapiens) (P08912 whole entry): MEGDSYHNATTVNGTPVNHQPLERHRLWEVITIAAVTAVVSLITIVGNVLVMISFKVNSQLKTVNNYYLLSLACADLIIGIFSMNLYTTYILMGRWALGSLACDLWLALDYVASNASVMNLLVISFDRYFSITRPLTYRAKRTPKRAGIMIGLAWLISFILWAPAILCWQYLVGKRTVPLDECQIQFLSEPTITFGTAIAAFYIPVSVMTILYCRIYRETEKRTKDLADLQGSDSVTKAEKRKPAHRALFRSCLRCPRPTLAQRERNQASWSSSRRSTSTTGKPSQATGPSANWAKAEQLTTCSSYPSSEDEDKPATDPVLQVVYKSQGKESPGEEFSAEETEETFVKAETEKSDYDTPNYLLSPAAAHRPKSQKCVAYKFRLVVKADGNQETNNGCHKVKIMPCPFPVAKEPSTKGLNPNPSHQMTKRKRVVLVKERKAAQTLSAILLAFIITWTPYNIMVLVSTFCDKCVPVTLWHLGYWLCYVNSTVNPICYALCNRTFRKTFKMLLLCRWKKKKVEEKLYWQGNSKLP
Chain of Kappa-type opioid receptor (Homo sapiens) (P41145 whole entry): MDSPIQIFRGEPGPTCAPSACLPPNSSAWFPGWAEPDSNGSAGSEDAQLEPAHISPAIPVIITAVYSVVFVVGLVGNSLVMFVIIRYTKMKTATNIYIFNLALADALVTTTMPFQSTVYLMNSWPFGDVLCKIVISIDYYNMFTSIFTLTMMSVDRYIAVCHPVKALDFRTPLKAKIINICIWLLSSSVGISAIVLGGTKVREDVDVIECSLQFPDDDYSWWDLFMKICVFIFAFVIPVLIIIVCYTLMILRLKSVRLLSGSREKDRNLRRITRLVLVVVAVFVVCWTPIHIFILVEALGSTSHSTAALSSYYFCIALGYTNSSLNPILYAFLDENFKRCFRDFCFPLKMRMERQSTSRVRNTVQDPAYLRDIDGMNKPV
Chain of Muscarinic acetylcholine receptor M1 (Homo sapiens) (P11229 whole entry): as the sequence (P11229 whole entry) above

EC50 [1]: > 50000 nM (not active)
EC50 [2]: 1300 nM (not active)
IC50 [2]: 6000 nM (not active)
SMILES: NC1(c2ccc(-c3nc4c(O)ccnn4c3-c3ccccc3)cc2)CCC1

inhibition [3]: -3.8%
inhibition [4]: 1.83%
inhibition [5]: 30.8%
inhibition (Rattus norvegicus): 40.5%
inhibition [6]: 11.4%
IC50 [7]: 141 nM (active)
inhibition [8]: 0.95%
inhibition [9]: -8.97%
inhibition [10]: 12.4%
inhibition [11]: 17.8%
inhibition [12]: 39.4%
Ki ([13]; read-out: Ki): 1450 nM
Ki ([13]; read-out: pKi (converted)): 1350 nM
IC50 [14]: 1.1 nM (active)
inhibition [15]: 21.5%
inhibition [16]: 40%
inhibition [17]: 71.9%
inhibition [18]: 38.9%
inhibition [19]: -1.55%
IC50 [20]: 5.6 nM (active)
inhibition [21]: 14.8%
inhibition [22]: 39.9%
IC50 [23]: 0.9 nM (active)
inhibition [24]: 6.89%
inhibition [25]: 23.4%
inhibition [26]: 13.4%
IC50 [27]: 0.8 nM (active)
inhibition [28]: 12.2%
inhibition [29]: 10.2%
inhibition [30]: 31.1%
inhibition [31]: 9.78%
inhibition [32]: 32.7%
IC50 [33]: 35 nM (active)
IC50 [34]: 100 nM (active)
inhibition [35]: 12.9%
inhibition [36]: 7.35%
inhibition [37]: -1.31%
inhibition [38]: 37.8%
inhibition [39]: 14.6%
inhibition [40]: 47.5%
inhibition [41]: 11.2%
inhibition [42]: 20.1%
IC50 [43]: 35 nM (active)
inhibition [44]: 38%
inhibition [45]: 26.9%
EC50 [2]: 15 nM (active)
IC50 [2]: 2.84 nM (active)
IC50 [46]: 35 nM (active)
inhibition [47]: 28.7%
inhibition [48]: 8.08%
EC50 [49]: 30 nM (active)
IC50 [49]: 10.7 nM (active)
inhibition [50]: 10.8%
inhibition [51]: 25.4%
inhibition [52]: 25.7%
inhibition [53]: 16.8%
inhibition [54]: 22.6%
SMILES: NC(=O)c1ccc2nc(-c3ccc(C4(N)CCC4)cc3)c(-c3ccccc3)n2n1 [BAY-1125976]
